According to patent publication US8569327B2, “Phenanthroindolizidine derivative and NFκB inhibitor containing same as active ingredient” (Kabushiki Kaisha Yakult Honsha, priority 2008, dated 2013):
Marks after values point to notes of the source that are not given here.

Key:
SV40 promoter = SV40 promoter activity, luciferase assay in SW480/SV40-Luc cells; type: cell-based, human; settings: for SV40 promoter inhibitory activity IC50: SW480/SV40-Luc cells, luciferase; for IC50: Homo sapiens, SW480, read-out: SV40 promoter inhibitory activity IC50
Summary of the method: (§1)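 Stable SW480 colon cancer lines carried luciferase driven by a 5× NFκB response element or by the SV40 promoter. Compound was added 1 h before 50 ng/mL TNFα, followed by 4 h culture at 37 °C; luminescence was read and IC50 taken as 50% inhibition of induced luciferase expression.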

[1] = system: human colon cancer HT-29 cells; assay: Inhibitory action on the proliferation of HT-29 cells; type: cell-based; settings: 96 hours, TetraColor ONE; for IC50: Homo sapiens, HT-29
Summary of the method: (§2)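 Cells seeded overnight (SW480 2000/well in 10% FBS/RPMI1640; A549, HT-29 1000/well in 10% FBS DMEM or DMEM F12 HAM), then compound-treated at 37 °C, 5% CO2 for 48 h (SW480) or 96 h (A549, HT-29). Viable cells counted by TetraColor ONE; IC50 for 50% proliferation inhibition.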

[2] = system: human colon cancer SW480 cells; assay: Inhibitory action on the proliferation of SW480 cells; type: cell-based; settings: 48 hours, TetraColor ONE; for IC50: Homo sapiens, SW480
Summary of the method: as §2

[3] = system: human non-small cell lung cancer A549 cells; assay: Inhibitory action on the proliferation of A549 cells; type: cell-based; settings: 96 hours, TetraColor ONE; for IC50: Homo sapiens, A549
Summary of the method: as §2

[4] = system: mouse fibrosarcoma Meth A cells; assay: Antitumor effect in mice transplanted with mouse fibrosarcoma Meth A cells; type: in vivo; settings: intravenous on days 1, 5, 9, tumor weight day 21, BALB/c mice
Procedure: The antitumor effect of the phenanthroindolizidine alkaloid compound of the present invention in vivo was studied using mice transplanted with mouse fibrosarcoma Meth A cells. Meth A cells were transplanted subcutaneously in the inguinal region of male 7-week-old BALB/c mice (2.5×10^5 cells/mouse). Subsequently, on days 1, 5, and 9, the compound of the present invention was intravenously administered. To a control group, physiological saline, a solvent, was administered. On day 21 after the cell transplantation, tumor was excised and measured for its weight, and subsequently a tumor growth-inhibition rate IR (%) was obtained by the following formula. Tumor growth-inhibition rate IR (%)=(1−the weight of the tumor in an administration group/the weight of the tumor in a control group)×100

NFκB = assay: Inhibitory action on the NFκB activity, luciferase assay in SW480/NRE-Luc cells; type: cell-based, human; settings: for NFκB inhibitory activity IC50: SW480/NRE-Luc cells, compound 1 h then 50 ng/mL TNFα 4 h, luciferase; for IC50: Homo sapiens, SW480, read-out: NFκB inhibitory activity IC50
Summary of the method: as §1

[5] = system: mice transplanted with mouse fibrosarcoma Meth A cells; assay: Animal toxicity test; type: in vivo; settings: intravenous days 1, 5, 9, observed three weeks
Solubility of the salts = assay: Solubility of the salts
Text: In in vivo studies, each compound was used in the form of a salt.

[6] = system: human colon cancer HCT116 cells; assay: Antitumor effect in mice transplanted with human colon cancer HCT116 cells; type: in vivo, mouse; settings: intraperitoneal days 1-5 and 8-12, tumor weight day 21, BALB/c nude mice
Text: The antitumor effect of the phenanthroindolizidine alkaloid compound of the present invention in vivo was studied using mice transplanted with human colon cancer HCT116 cells. HCT116 cells were transplanted subcutaneously in the inguinal region of male 6-week-old BALB/c nude mice (2×10^6 cells/mouse). On days 1 to 5 and on days 8 to 12 after the time at which the estimated tumor volume obtained by ½ab^2 (a and b indicate the major axis and the minor axis of tumor, respectively) reached approximately 100 mm^3 (day 0), the compound of the present invention was administered (intraperitoneal administration). To a control group, a 5% glucose solution, a solvent, was administered. On day 21, tumor was excised and measured for its weight, and subsequently a tumor proliferation-inhibition rate IR (%) was calculated.

[7] = aqueous solution of 5% glucose, saline or isotonic

Compound	SV40 promoter inhibitory activity IC50 (SV40 promoter)	HT-29 proliferation inhibitory action IC50 [1]	SW480 proliferation inhibitory action IC50 [2]	A549 proliferation inhibitory action IC50 [3]	Tumor growth inhibition rate IR ([4]; total dose 25 mg/kg)	Tumor growth inhibition rate IR ([4]; total dose 50 mg/kg)	NFκB inhibitory activity IC50 (NFκB)	Mortality rate ([5]; total dose 25 mg/kg)	Mortality rate ([5]; total dose 50 mg/kg)	IC50 (SV40 promoter)	IC50 [1]	IC50 [2]	IC50 [3]	IC50 (NFκB)	solubility (Solubility of the salts; [7])	Tumor growth inhibition rate IR ([6]; total dose 100 mg/kg)	solubility (Solubility of the salts; in an aqueous solution of 5% glucose, salt form)	Tumor growth inhibition rate IR ([6]; total dose 200 mg/kg)	Tumor growth inhibition rate IR ([6]; total dose 50 mg/kg)
COC(=O)CCC(=O)Oc1ccc2c3c(c4cc(OC)c(OC)cc4c2c1)CN1CCC[C@H]1[C@H]3O.Cl [Compound 16, succinic acid(12aS,13S)-13-hydroxy-6,7-dimethoxy-9,10,11,12,12a,13-hexahydro-9a-aza-cyclopenta[b]triphenylene-3-yl ester methyl ester hydrochloride]	>100 ng/mL	0.17 ng/mL	0.76 ng/mL	0.59 ng/mL	48.8* %	39.1%	0.37 ng/mL												
COC(=O)Oc1ccc2c3c(c4cc(OC)c(OC)cc4c2c1)CN1CCC[C@H]1[C@H]3O.Cl [Compound 17, carbonic acid(12aS,13S)-13-hydroxy-6,7-dimethoxy-9,10,11,12,12a,13-hexahydro-9a-aza-cyclopenta[b]triphenylene-3-yl ester methyl ester hydrochloride]	>100 ng/mL	0.067 ng/mL	0.63 ng/mL	0.53 ng/mL	54.2* %	50.0%	0.83 ng/mL												
COc1cc2c3c(c4ccc(OC(=O)c5ccco5)cc4c2cc1OC)[C@H](O)[C@@H]1CCCN1C3.Cl [Compound 20, furan-2-carboxylic acid(12aS,13S)-13-hydroxy-6,7-dimethoxy-9,10,11,12,12a,13-hexahydro-9a-aza-cyclopenta[b]triphenylene-3-yl ester hydrochloride]	>100 ng/mL	0.76 ng/mL	0.67 ng/mL	0.42 ng/mL	36.7%	53.0* %	0.46 ng/mL	0/5	0/5										
COc1cc2c3c(c4cccc(O)c4c2cc1OC)C[C@@H]1CCCN1C3.Cl [Compound 40, (S)-6,7-dimethoxy-9,10,11,12,12a,13-hexahydro-9a-aza-cyclopenta[b]triphenylene-4-ol hydrochloride]					25.8%	45.1* %		0/5	0/5	> 1000 ng/mL	67.9 ng/mL	4 ng/mL	3.3 ng/mL	2.4 ng/mL					
COc1cc2c3c(c4cccc(O)c4c2cc1OC)[C@H](O)[C@@H]1CCCN1C3.CS(=O)(=O)O [Compound 43, (12aS,13S)-6,7-dimethoxy-9,10,11,12,12a,13-hexahydro-9a-aza-cyclopenta[b]triphenylene-4,13-diol methanesulfonate]										> 1000 ng/mL	100 ng/mL	6.2 ng/mL	4.4 ng/mL	2.7 ng/mL	11.2 mg/mL				
COc1cc2c3c(c4ccc(F)cc4c2cc1OC)C[C@@H]1CCCN1C3.CS(=O)(=O)O [Compound 44, (S)-3-fluoro-6,7-dimethoxy-9,10,11,12,12a,13-hexahydro-9a-aza-cyclopenta[b]triphenylene methanesulfonate]										> 1000 ng/mL	12.8 ng/mL	64.9 ng/mL	6 ng/mL	36.8 ng/mL	10.3 mg/mL	30.7** %			
COc1cc2c3c(c4ccc(OC(C)=O)cc4c2cc1OC)C[C@@H]1CCCN1C3.CS(=O)(=O)O [Compound 45, acetic acid(S)-6,7-dimethoxy-9,10,11,12,12a,13-hexahydro-9a-aza-cyclopenta[b]triphenylene-3-yl ester methanesulfonate]	>100 ng/mL	1.5 ng/mL	0.76 ng/mL	0.64 ng/mL			0.41 ng/mL										9.7 mg/mL	34.7** %	
COC(=O)CCC(=O)Oc1ccc2c3c(c4cc(OC)c(OC)cc4c2c1)CN1CCC[C@H]1C3.CS(=O)(=O)O [Compound 46, succinic acid(S)-6,7-dimethoxy-9,10,11,12,12a,13-hexahydro-9a-aza-cyclopenta[b]triphenylene-3-yl ester methyl ester methanesulfonate]	>1000 ng/mL	2.1 ng/mL	0.36 ng/mL	1.2 ng/mL			0.13 ng/mL											34.6** %	
COc1cc2c3c(c4ccc(NC(C)=O)cc4c2cc1OC)C[C@@H]1CCCN1C3.CS(=O)(=O)O [Compound 56, N-((S)-6,7-dimethoxy-9,10,11,12,12a,13-hexahydro-9a-aza-cyclopenta[b]triphenylene-3-yl)-acetamide methanesulfonate]										> 10 ng/mL	2.4 ng/mL	4.8 ng/mL	2.2 ng/mL	2.9 ng/mL		68.9** %			39.1** %
